Several values for one entry are separate records, joined by “and”; a condition that tells them apart may be missing. Equal entries are not always repeated.
Test system: 777334-354-R2-J4-PDC tumor spheroids with HUVEC/MSC, viability
Test: Anticancer human tumor 777334-354-R2-J4-PDC patient-derived pancreatic adenocarcinoma cell line growth inhibition [GQUAD]
Conditions: for viability, T/C: stronger effect = lower value
Excerpt: DNA G-quadruplex Stabilizer Agents in Combinations in Complex Spheroids
A high-throughput screen of multi-cell type tumor spheroids was designed to identify active combinations of DNA G-quadruplex stabilizer agents and targeted small molecules. Complex spheroids include a stromal component modeled by human endothelial cells (HUVEC) and fibroblasts modeled by human mesenchymal stem cells (MSCs). The concentration ranges selected for each drug and investigational agent were based upon clinically achievable concentrations if the clinical Cmax of the agent was known.
Compounds. The drugs and investigational agents: pidnarulex (CX-5461; NSC782164), APTO-253 (NSC789042), BRACO-19 (NSC847499), peposertib (NSC802822), ceralasertib (NSC780249), elimusertib (NSC800525), camonsertib (NSC841442), AZD-1390 (NSC803789), olaparib (NSC753686), talazoparib (NSC767125), ART-558 (NSC835418), sotorasib (NSC818433), MRTX-1133 (NSC836407), SN-38 (NSC673596), topotecan (NSC609699), etoposide (NSC141540), doxorubicin (NSC123127), gemcitabine (NSC613327), 5-fluorouracil (NSC19893), paclitaxel (NSC125973), vemurafenib (NSC761431), panobinostat (NSC761190), R-306465 (JNJ-16241199; NSC773264), adavosertib (NSC754352), TP-3654 (NSC805149), carboplatin (NSC241240), KSQ-4279 (NSC840948), and staurosporine (NSC755774) were obtained from the National Cancer Institute (NCI) Developmental Therapeutics Program Chemical Repository (34). The FDA-approved anticancer drug set is available from the NCI Developmental Therapeutics Program. […] The stock solutions were prepared in dimethyl sulfoxide (DMSO, Sigma-Aldrich, St. Louis, MO, cat. D2650) at 800-fold the tested concentration and stored at -70 degrees C prior to their use. All drugs and investigational agents were tested over a range starting from a high concentration at or near the clinical Cmax and decreasing in half-log increments. If the clinical Cmax for an agent had not been determined, the highest concentration tested was 10 microM.
2.3 Cell Culture. All cells were maintained in an incubator at 37 degrees C and 5% CO2 with 95% humidity. The PDC lines were cultured according to standard operating procedures established by the NCI PDMR. All PDCs were thawed and cultured in Matrigel-coated flasks prepared with a working solution of 1X Ham's F-12 nutrient mix, without supplementation (Invitrogen, cat. 11765054), 100 U/mL penicillin-streptomycin (Invitrogen, cat. 15140122), and 2.5% Matrigel (Corning Inc., cat. 354248) for the first three passages. The 857933-349-R-J2-PDC line was cultured in 6C/Colon 1B media, which includes advanced DMEM/F-12 (Thermo Fisher Scientific, cat. 12634028), 10 mM HEPES (Thermo Fisher Scientific, cat. 15630080), 1X GlutaMAX supplement (Thermo Fisher Scientific, cat. 35050061), 0.1 mg/mL primocin (InvivoGen, cat. ant-pm-2), 10% defined fetal bovine serum, heat inactivated (HyClone Laboratories Inc., cat. SH30070.03HI), 50% L-WRN conditioned media (ATCC, cat. CRL-3276), 1.25 mM N-Acetyl-L-cysteine (Sigma-Aldrich, cat. A9165), 10 mM nicotinamide (Sigma-Aldrich, cat. N0636), 1X B-27 supplement (Thermo Fisher Scientific, cat. 17504044), 1X N-2 supplement (Thermo Fisher Scientific, cat. 17502048), 10 microM Y-27632 dihydrochloride (Tocris Bioscience, cat. 1254), and 50 ng/mL human EGF recombinant protein (Thermo Fisher Scientific, cat. PHG0311). The 485176-168-R4-J1-PDC line was cultured in Panc media, which includes all 6C/Colon 1B media components plus 100 ng/mL human FGF-10 (Thermo Fisher Scientific, cat. 100-26), 500 nM SB-431542 (Selleckchem, cat. S1067), and gastrin (Tocris, cat. 3006).
[…]
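Note: spheroids exposed to compounds for 7 days before readout.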

CC(=O)O[C@H]1C(=O)[C@@]2(C)[C@H]([C@H](OC(=O)c3ccccc3)[C@]3(O)C[C@H](OC(=O)[C@H](O)[C@@H](NC(=O)c4ccccc4)c4ccccc4)C(C)=C1C3(C)C)[C@]1(OC(C)=O)CO[C@@H]1C[C@@H]2O + Cc1cnc(CNC(=O)c2c(=O)c3ccc(N4CCCN(C)CC4)nc3n3c2sc2ccccc23)cn1
IC50 (curve of first compound, second compound 0.0316 µM): > 10000 nM
IC50 (curve of first compound, second compound 0.1 µM): > 10000 nM
IC50 (curve of first compound, second compound 0.316 µM): > 10000 nM
IC50 (curve of first compound, second compound 1 µM): > 10000 nM
IC50 (curve of first compound, second compound 3.16 µM): > 10000 nM
IC50 (curve of first compound, second compound 10 µM): > 10000 nM
viability, T/C (second compound 0.0316 µM, first compound 0.0316 µM): 70%
viability, T/C (second compound 0.0316 µM, first compound 0.1 µM): 49.9%
viability, T/C (second compound 0.0316 µM, first compound 0.316 µM): 53.5%
viability, T/C (second compound 0.0316 µM, first compound 1 µM): 43%
viability, T/C (second compound 0.0316 µM, first compound 3.16 µM): 52.1%
viability, T/C (second compound 0.0316 µM, first compound 10 µM): 52.8%
viability, T/C (second compound 0.1 µM, first compound 0.0316 µM): 78.2%
viability, T/C (second compound 0.1 µM, first compound 0.1 µM): 54.7%
viability, T/C (second compound 0.1 µM, first compound 0.316 µM): 61.6%
viability, T/C (second compound 0.1 µM, first compound 1 µM): 45.4%
viability, T/C (second compound 0.1 µM, first compound 3.16 µM): 60.9%
viability, T/C (second compound 0.1 µM, first compound 10 µM): 59.7%
viability, T/C (second compound 0.316 µM, first compound 0.0316 µM): 74.3%
viability, T/C (second compound 0.316 µM, first compound 0.1 µM): 61.9%
viability, T/C (second compound 0.316 µM, first compound 0.316 µM): 61.5%
viability, T/C (second compound 0.316 µM, first compound 1 µM): 68.1%
viability, T/C (second compound 0.316 µM, first compound 3.16 µM): 64.2%
viability, T/C (second compound 0.316 µM, first compound 10 µM): 62.1%
viability, T/C (second compound 1 µM, first compound 0.0316 µM): 65%
viability, T/C (second compound 1 µM, first compound 0.1 µM): 63.5%
viability, T/C (second compound 1 µM, first compound 0.316 µM): 61%
viability, T/C (second compound 1 µM, first compound 1 µM): 67.3%
viability, T/C (second compound 1 µM, first compound 3.16 µM): 80.5%
viability, T/C (second compound 1 µM, first compound 10 µM): 70.1%
viability, T/C (second compound 3.16 µM, first compound 0.0316 µM): 57%
viability, T/C (second compound 3.16 µM, first compound 0.1 µM): 66.5%
viability, T/C (second compound 3.16 µM, first compound 0.316 µM): 63.6%
viability, T/C (second compound 3.16 µM, first compound 1 µM): 58.4%
viability, T/C (second compound 3.16 µM, first compound 3.16 µM): 71.6%
viability, T/C (second compound 3.16 µM, first compound 10 µM): 74.1%
viability, T/C (second compound 10 µM, first compound 0.0316 µM): 61.2%
viability, T/C (second compound 10 µM, first compound 0.1 µM): 50.1%
viability, T/C (second compound 10 µM, first compound 0.316 µM): 55.8%
viability, T/C (second compound 10 µM, first compound 1 µM): 58.4%
viability, T/C (second compound 10 µM, first compound 3.16 µM): 60.6%
viability, T/C (second compound 10 µM, first compound 10 µM): 52.3%

CC1COCCN1c1cc(C2(O)CC3CCC(C2)O3)c2cnn(-c3ccn[nH]3)c2n1 (stereo unspecified)
viability, T/C (compound 0.0316 µM): 93.3% and 104% and 95%
viability, T/C (compound 0.1 µM): 76.1% and 79.5% and 78.4%
viability, T/C (compound 0.316 µM): 52.4% and 54.4% and 51.5%
viability, T/C (compound 1 µM): 39.1% and 38.5% and 37.8%
viability, T/C (compound 3.16 µM): 30.1% and 36.1% and 34.6%
viability, T/C (compound 10 µM): 20.1% and 19.8% and 21.7%
IC50 (curve of compound): 447 nM and 516 nM and 435 nM

CC1COCCN1c1cc(-c2ccnn2C)c2ccnc(-c3ccn[nH]3)c2n1 (stereo unspecified)
viability, T/C (compound 0.0316 µM): 94.2% and 88.2% and 75%
viability, T/C (compound 0.1 µM): 73.7% and 75.3% and 83.1%
viability, T/C (compound 0.316 µM): 65.4% and 62.4% and 50.8%
viability, T/C (compound 1 µM): 47.7% and 49.3% and 49.1%
viability, T/C (compound 3.16 µM): 37.1% and 41.5% and 48.4%
viability, T/C (compound 10 µM): 26.8% and 33.3% and 28.8%
IC50 (curve of compound): 901 nM and 1020 nM and 1110 nM

Cc1[nH]c2ccc(F)cc2c1-c1nc2c3cccnc3c3ncccc3c2[nH]1
viability, T/C (compound 0.0316 µM): 101% [middle of 12 runs]
viability, T/C (compound 0.1 µM): 98% [middle of 12 runs]
viability, T/C (compound 0.316 µM): 97.4% [middle of 11 runs]
viability, T/C (compound 1 µM): 86.4% [middle of 12 runs]
viability, T/C (compound 3.16 µM): 43.9% [middle of 12 runs]
IC50 (compound alone, run of 03/18/2024): 2.51 µM [middle of 7 runs]

O=C(NO)c1cnc(N2CCN(S(=O)(=O)c3ccc4ccccc4c3)CC2)nc1
viability, T/C (compound 0.0316 µM): 80.7% and 107% and 88.9%
viability, T/C (compound 0.1 µM): 89.8% and 86% and 83.7%
viability, T/C (compound 0.316 µM): 77.1% (2×) and 79.3%
viability, T/C (compound 1 µM): 58% and 59.4% and 44%
viability, T/C (compound 3.16 µM): 11.9% and 9.01% and 3.01%
viability, T/C (compound 10 µM): 0.93% and 0.25% and 0.19%
IC50 (curve of compound): 1200 nM and 1070 nM and 793 nM

CC1COCCN1c1cc(C2(S(C)(=N)=O)CC2)nc(-c2ccnc3[nH]ccc23)n1 (stereo unspecified)
viability, T/C (compound 0.0316 µM): 112% and 90.9% and 98.4%
viability, T/C (compound 0.1 µM): 106% (2×) and 86.8%
viability, T/C (compound 0.316 µM): 105% and 99.7% and 115%
viability, T/C (compound 1 µM): 105% and 84% and 101%
viability, T/C (compound 3.16 µM): 89.7% and 86.5% and 112%
viability, T/C (compound 10 µM): 63% and 58.7% and 63.3%
IC50 (curve of compound): > 10000 nM
